# Measured values as given in patent US6946480B2, “Glutaminyl based DPIV inhibitors” (priority 2002, dated 2005).
# Tests used:
# [1] = biological target: T1, Prolidase from porcine kidney (Sus scrofa, UniProt A0A5G2QQV1); assay: Cross reacting enzymes - prolidase; assay type: biochemical
# T1 sequence (A0A5G2QQV1 1-463): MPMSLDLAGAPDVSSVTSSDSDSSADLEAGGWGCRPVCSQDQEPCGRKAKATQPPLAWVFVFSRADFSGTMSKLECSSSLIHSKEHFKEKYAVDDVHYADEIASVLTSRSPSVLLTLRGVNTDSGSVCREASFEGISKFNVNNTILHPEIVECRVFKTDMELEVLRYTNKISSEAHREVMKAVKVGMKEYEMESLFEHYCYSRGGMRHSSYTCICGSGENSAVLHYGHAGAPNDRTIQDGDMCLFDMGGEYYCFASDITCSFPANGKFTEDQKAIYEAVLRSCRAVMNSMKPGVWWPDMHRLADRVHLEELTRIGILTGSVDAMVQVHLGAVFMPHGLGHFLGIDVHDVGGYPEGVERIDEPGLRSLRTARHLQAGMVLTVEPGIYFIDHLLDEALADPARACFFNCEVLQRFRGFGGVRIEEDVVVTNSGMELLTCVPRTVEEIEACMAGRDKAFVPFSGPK
# Protocol: Glutaminyl pyrrolidine or glutaminyl thiazolidine were tested for their cross reacting potency against dipeptidyl peptidase I, prolyl oligopeptidase and prolidase.
# Prolidase (EC 3.4.13.9) was first described by Bergmann & Fruton (Bergmann, M. & Fruton, J S, 1937, J. Biol. Chem. 189-202). Prolidase releases the N-terminal amino acid from Xaa-Pro dipeptides and has a pH optimum between 6 and 9.
# Prolidase from porcine kidney (ICN Biomedicals, Eschwege, Germany). was solved (1 mg/ml) in assay buffer (20 mM NH4(CH3COO)2, 3 mM MnCl2, pH 7.6). In order to get a fully active enzyme the solution was incubated for 60 min at room temperature.
# 450 μl glutaminyl pyrrolidine or glutaminyl thiazolidine in an concentration range of 5*10^−3 M-5*10^−7 M were admixed with 500 μl buffer solution (20 mM NH4(CH3COO)2, pH 7.6) and 250 μl lle-Pro-OH (0.5 mM in the assay mixture). The assay mixture was pre-incubated at 30° C. for 5 min After pre-incubation, 75 μl Prolidase (1:10 diluted in assay buffer) were added and measurement was performed at 30° C. and λ=220 nm for 20 min using a UV/Vis photometer, UV1 (Thermo Spectronic, Cambridge, UK).
# The IC50-values were calculated using Graphit 4.0.15 (Erithacus Software, Ltd., UK).
# diabetic Zucker rats = assay: Dose escalation study with oral glucose tolerance test in fatty Zucker rats; assay type: in vivo, Zucker rats (fa/fa); conditions: for effect on glucose tolerance (OGTT): 2 g/kg glucose
# Protocol: N=30 male Zucker rats (fa/fa), mean age 11 weeks (5-12 weeks), mean body weight 350 g (150-400 g), were purchased from Charles River (Sulzfeld, Germany). After delivery they were kept for >12 weeks until nearly all fatty Zucker rats had the characteristics of manifest diabetes mellitus. A group of N=8 animals were recruited for testing three escalating doses of glutaminyl pyrrolidine vs. placebo (saline).
# Animals were single-caged under standardized conditions with controlled temperature (22±2° C.) on a 12/12 hours light/dark cycle (light on at 06:00 AM). Sterile standard pelleted chow (ssniff® Soest, Germany) and tap water acidified with HCl were allowed ad libitum.
# Fatty Zucker rats of 24-31 weeks (mean: 25 weeks) age, adapted to the housing conditions, were well prepared for the study.
# Catheters were implanted into the carotid artery of fatty Zucker rats under general anaesthesia (i.p. injection of 0.25 ml/kg b.w. Rompune® [2%], BayerVital, Germany and 0.5 ml/kg b.w. Ketamin 10, Atarost GmbH & Co., Twistringen, Germany). The animals were allowed to recover for one week. The catheters were flushed with heparin-saline (100 IU/ml) three times per week.
# Placebo (1 ml saline, 0.154 mol/l) or escalating doses of glutaminyl pyrrolidine (5, 15 and 50 mg/kg b.w.) were administered to groups of N=8 fatty Zucker rats. 375 mg of glutaminyl pyrrolidine were dissolved in 1000 μl DMSO (E. Merck, Darmstadt; Germany [Dimethyl sulfoxide p.a.]). 10 ml saline were added and 1 ml aliquots, each containing 34.09 mg of glutaminyl pyrrolidine, were stored at −20° C. For preparation of the test substance, dose dependent aliquots were diluted in saline.
# After overnight fasting, placebo or test substance were administered to the fatty Zucker rats via feeding tube orally (15 G, 75 mm; Fine Science Tools, Heidelberg, Germany) at −10 min An oral glucose tolerance test (OGTT) with 2 g/kg b.w. glucose (40% solution, B. Braun Melsungen, Melsungen, Germany) was administered at ±0 min via a second feeding tube. Venous blood samples from the tail veins were collected at −30 min, −15 min, ±0 min and at 5, 10, 15, 20, 30, 40, 60, 90 and 120 min into 20 μl glass capillaries, which were placed in standard tubes filled with 1 ml solution for blood glucose measurement.
# Glucose levels were measured using the glucose oxidase procedure (Super G Glucose analyzer; Dr. Müller Gerätebau, Freital, Germany).
# Statistical evaluations and graphics were performed with PRISM® 3.02 (GraphPad Software, Inc.). All parameters were analysed in a descriptive manner including mean and SD.
# N=30 male Zucker rats (fa/fa), mean age 11 weeks (5-12 weeks), mean body weight 350 g (150-400 g), were purchased from Charles River (Sulzfeld, Germany). […]
structure (smiles),measurement,setting,value
NC(=O)CC[C@H](N)C(=O)N1CCCC1 [glutaminyl pyrrolidine],efficacy against prolidase compared to DPIV,[1],marked lower efficacy
same,effect on glucose tolerance (OGTT),diabetic Zucker rats; 5 mg/kg b.w. oral,limited improvement of glucose tolerance
same,effect on blood glucose levels over escalating doses (OGTT),"diabetic Zucker rats; 5 mg/kg, 15 mg/kg and 50 mg/kg b.w. oral",dose dependent lowering of elevated blood glucose levels
same,effect on glucose tolerance (OGTT),diabetic Zucker rats; 15 mg/kg b.w. oral,Significant lowering of elevated blood glucose levels
same,effect on glucose tolerance (OGTT),diabetic Zucker rats; 50 mg/kg b.w. oral,Significant lowering of elevated blood glucose levels
